Results taken from patent publication US5225607A, “Insecticidal ethers” (Imperial Chemical Industries PLC, priority 1985, dated 1993).

Key:
Type in all cases: in vivo
[1] = system: Diabrotica balteata; assay: Insecticidal test, Diabrotica balteata (rootworm larvae), residual; details: 72 h, filter paper/maize seed, 3 days, read-out: grading of mortality, DB
Procedure: (§1) The activity of the Product was determined using a variety of insect and acarine pests. The Product was used in the form of liquid preparations containing 500, 250 or 100 parts per million (ppm) by weight of the Product. The preparations were made by dissolving the Product in acetone and diluting the solutions with water containing 0.01% by weight of a wetting agent sold under the trade name "LISSAPOL" NX until the liquid preparations contained the required concentratio of the Product. "Lissapol" is a Registered Trade Mark.
(§2) The test procedure adopted with regard to each pest was basically the same and comprised supporting a number of the pests on a medium which was usually a host plant or a foodstuff on which the pests feed, and treating either or both the pests and the medium with the preparations. The mortality of the pests was then assessed at periods usually varying from one to three days after the treatment.
(§3) The results of the tests are given in Table IV for each of the Products, at the rate in parts per million given in the second column as a grading of mortality designated as A, B or C wherein A indicates 80-100% mortality or knockdown (70-100% in the case of Spodoptera exigua), B indicates 50-79% mortality or knockdown (50-69% in the case of Spodoptera exigua) and C indicates less than 50% mortality or knockdown.
(§4) In Table IV the pest organism used is designated by a letter code and the pest species, the support medium or food, and the type and duration of test is given in Table III.

[2] = system: Myzus persicae; assay: Insecticidal test, Myzus persicae (aphids), contact; details: 72 h, Chinese Cabbage leaf, 3 days, read-out: grading of mortality, MP
Procedure: as §1, §2, §3, §4

[3] = system: Tetranychus urticae; assay: Insecticidal/acaricidal test, Tetranychus urticae (spider mites - adult), contact; details: 72 h, French bean leaf, 3 days, read-out: grading of mortality, TU
Procedure: as §1, §2, §3, §4

[4] = system: Heliothis virescens; assay: whole plant or invertebrate; details: in Gossypium hirsutum, 72 h, read-out: grading of mortality, HV
Procedure: as §1, §2, §3, §4

[5] = system: Musca domestica; assay: Insecticidal test, Musca domestica (houseflies - adults), contact; details: 24 h, cotton wool/sugar, 1 day, read-out: grading of mortality, MD
Procedure: as §1, §2, §3, §4

[6] = system: Musca domestica; assay: Knockdown test, Musca domestica (houseflies - adults); details: cotton wool/sugar, 4 hours, read-out: grading of knockdown, MD/KD
Procedure: as §1, §2
In the case of the species Musca domestica (housefly), additional tests to determine the knockdown effect of the compounds were performed.
as §3, §4

[7] = system: Nilaparvata lugens; assay: Insecticidal test, Nilaparvata lugens (brown planthopper), contact; details: 72 h, Cabbage leaf, 3 days, read-out: grading of mortality, NL
Procedure: as §1, §2, §3, §4

[8] = system: Blattella germanica; assay: Insecticidal test, Blattella germanica (cockroach nymphs), residual; details: 72 h, plastic pot, 3 days, read-out: grading of mortality, BG
Procedure: as §1, §2, §3, §4

Row | SMILES | mortality at 500 ppm [1] | mortality at 500 ppm [2] | mortality at 500 ppm [3] | mortality at 500 ppm [4] | mortality at 500 ppm [5] | pest or weed control at 500 ppm [6] | mortality at 500 ppm [7] | mortality at 500 ppm [8] | mortality at 250 ppm [1] | mortality at 250 ppm [2] | mortality at 250 ppm [3] | mortality at 250 ppm [4] | mortality at 250 ppm [5] | pest or weed control at 250 ppm [6] | mortality at 250 ppm [7] | mortality at 250 ppm [8]
1 | FC(F)(F)Oc1ccc(C(=COCc2cccc(Oc3ccccc3)c2)C(F)(F)F)cc1 [Compound 463, 1,1,1-trifluoro-2-(4-trifluoromethoxyphenyl)-3-(3-phenoxybenzyloxy)prop-2-ene] | 80 to 100% | 80 to 100% | < 50% | 80 to 100% | < 50% | < 50% | < 50% | 80 to 100% | – | – | – | – | – | – | – | –
2 | CCOc1ccc(C(Cl)(COCc2cccc(Oc3ccc(Cl)cc3)c2)C(F)(F)F)cc1 (centres unmarked) [Compound 42, 1,1,1-Trifluoro-2-chloro-2-(4-ethoxyphenyl)-3-(3-(4-chlorophenoxy)benzyloxy)propane] | – | – | – | – | – | – | – | – | 50 to 79% | 80 to 100% | < 50% | 80 to 100% | 80 to 100% | 80 to 100% | 80 to 100% | 80 to 100%
3 | CCOc1ccc(C(COCc2ccc(F)c(Oc3ccc(Br)cc3)c2)C(F)(F)F)cc1 (centres unmarked) [Compound 6, 1,1,1-Trifluoro-2-(4-ethoxyphenyl)-3-(3-(4-bromophenoxy)-4-fluorobenzyloxy)propane] | 80 to 100% | 80 to 100% | 80 to 100% | 80 to 100% | 80 to 100% | 80 to 100% | 80 to 100% | 80 to 100% | – | – | – | – | – | – | – | –
4 | CCOc1ccc(C(COCc2cccc(-c3ccccc3)c2C)C(F)(F)F)cc1 (centres unmarked) [Compound 7, 1,1,1-Trifluoro-2-(4-ethoxyphenyl)-3-(2-methyl-3-phenylbenzyloxy)propane] | 80 to 100% | 80 to 100% | 80 to 100% | < 50% | 80 to 100% | 80 to 100% | 80 to 100% | 80 to 100% | – | – | – | – | – | – | – | –
5 | CCOc1ccc(C(O)(COCc2cccc(Oc3ccccc3)c2)C(F)(F)F)cc1 (centres unmarked) [Compound 112, 1,1,1-trifluoro-2-(4-ethoxyphenyl)-3-(3-phenoxybenzyloxy)propan-2-ol] | – | – | – | – | – | – | – | – | 80 to 100% | < 50% | < 50% | < 50% | < 50% | 50 to 79% | < 50% | < 50%
6 | CCOc1ccc(C(Cl)(COCc2cccc(-c3ccccc3)c2C)C(F)(F)F)cc1 (centres unmarked) [Compound 46, 1,1,1-Trifluoro-2-chloro-2-(4-ethoxyphenyl)-3-(2-methyl-3-phenylbenzyloxy)propane] | < 50% | < 50% | < 50% | < 50% | < 50% | 80 to 100% | < 50% | < 50% | – | – | – | – | – | – | – | –
7 | CCOc1ccc(C(F)(COCc2cccc(Oc3ccc(Cl)cc3)c2)C(F)(F)F)cc1 (centres unmarked) [Compound 79, 1,1,1,2-Tetrafluoro-2-(4-ethoxyphenyl)-3-(3-(4-chlorophenoxy)benzyloxy)propane] | – | – | – | – | – | – | – | – | < 50% | < 50% | < 50% | 80 to 100% | 80 to 100% | 80 to 100% | 80 to 100% | 80 to 100%
